The values below come from article PMC10298657, “QbD-Optimized, Phospholipid-Based Elastic Nanovesicles for the Effective Delivery of 6-Gingerol: A Promising Topical Option for Pain-Related Disorders” (International Journal of Molecular Sciences, 2023).

This test can be described thus: ABTS radical scavenging activity. Format: biochemical. As to conditions: ABTS assay. On the procedure:
The ability of the nanocarriers to scavenge the free radical ABTS was used to measure their antioxidant activity. To create an ABTS free radical, a stock solution of 7 mM ABTS was combined with 2.45 mM potassium persulfate and agitated in the dark for 12 h. […] Then, a standard solution (ascorbic acid) was mixed with the ABTS+ solution and incubated for 10 min in a 37 °C water bath. After that, various concentrations (10–100 µg/mL) of all samples were prepared in ethanol, 3 mL of the solution and 1 mL of the samples were combined, and the absorbance was measured at 734 nm using a UV spectrophotometer after 6 min [66]. Finally, the following equation was used to compute ABTS scavenging activity: Scavenging (%)=(Absorbance blank−Absorbance sample)/Absorbance blank×100

Turning to `CCCCC[C@H](O)CC(=O)CCc1ccc(O)c(OC)c1` [Formulation 6-G, 6-gingerol], the “Antioxidant activity (ABTS scavenging)” value is listed as 67.01 ± 1.11%. With `O=C1O[C@H]([C@@H](O)CO)C(O)=C1O` [standard solution, ascorbic acid], the “Antioxidant activity (ABTS scavenging)” value was found to be 91.14 ± 0.24%.
